In one assay the test system is Cdk1. Nature of the assay: Western blotting for Cdk1 phosphorylation status in tsFT210 cells. Conditions: 10 or 20 μM, 6 hours. The format is cell-based, mouse. On the procedure: tsFT210 cells were harvested using the same procedure for cell synchronizing and drug exposure as described above for the G2/M flow cytometric analysis. The protein lysates were analyzed by Western blotting for Cdk1 as described previously (Tamura K, Southwick EC, Kerns J, Rosi K, Carr BI, Wilcox C and Lazo JS (2000) Cdc25 inhibition and cell cycle arrest by a synthetic thioalkyl vitamin K analogue. Cancer Res 60:1317-1325.). The inventors used Cdk1 isolated from human MCF-7 cells to assay for in vitro inhibition of enzyme activity because of available antibodies and convenience. Asynchronous cells grown at 37° C. in 5% CO2 in DMEM containing 10% fetal bovine serum were treated with lysis buffer and harvested as previously described (Vogt A, Wang AS, Johnson CS, Fabisiak JP, Wipf P and Lazo JS (2000) In vivo antitumor activity and induction of insulin-like growth factor-1 resistant apoptosis by SC-ααδ9. J Pharmacol Exptl Therap 292:530-537.). Cdk1 kinase activity assay was performed as previously described (Yu L, Orlandi L, Wang P, Orr MS, Senderowicz AM, Sausville EA, Silvestrini R, Watanabe N, Piwnica-Worms H, O° Connor PM (1998) UCN-01 arogates G2 arrest through a Cdc2-dependent pathway that is associated with inactivation of the WeelHu kinase and activation of the Cdc25C phosphatase. J Biol Chem 273: 33455-33464.). […] Histone H1 was separated from other proteins by SDS-PAGE and analyzed for incorporation of radioactive phosphate with a Molecular Dynamics STORM 860 Phospholmager (Sunnyvale, CA).
The major controlling molecule for G2/M transition is the cyclin dependent kinase, Cdk1, whose cellular activity is tightly regulated by phosphorylation (Pines J (1999) Four-dimensional control of the cell cycle. Nature Cell Biol 1:E73-79., Hunter T and Pines J (1994) Cyclins and cancer II: cyclin D and CDK inhibitors come of age. Cell 79:573-582). […] The protein lysates were analyzed by Western blotting for Cdk1 content and phosphorylation status as described elsewhere herein. […]
On the technique in general: A western blot detects proteins with antibodies after separation by electrophoresis.

Another assay has as its system tsFT210 cells. The assay can be described thus: Flow cytometry, G1 transition in tsFT210 cells. The class given is cell-based, mouse. Conditions: 5 or 10 μM, additional 6 hours. On the technique in general: Flow cytometry measures light scatter and fluorescence of single cells or particles in a stream.
Assay [1] relates to 1 A9, 1 A9/PTX10 and 1 A9/PTX22 cells. The assay can be described thus: Growth inhibition of paclitaxel-sensitive and -resistant 1A9 cells. The format is cell-based, human. As for the experimental part:
Two compounds, 24 referred to herein as SR-4 and 27 referred to herein as SR-7, were examined in greater detail as to their effects on biological activity. The proliferation of MCF-7, MDA-MB-231 and SV40 transformed mouse embryonic fibroblasts was measured by a previously described colorimetric assay (Wipf P, Jung J-K, Rodriguez S, Lazo JS Synthesis and biological evaluation of Deoxypreussomerin A and Palmarumycin CP 1 and related naphthoquinone spiroketals. Tetrahedron 57:283-296, 2001 and Vogt A, Rice RL, Settineri CE, Yokokawa F, Yokokawa S, Wipf P and Lazo JS (1998) Disruption of insulin-like growth factor-I signaling and down-regulation of Cdc2 by SC-ααδ9, a novel small molecule antisignaling agent identified in a targeted array library. J Pharmacol Exptl Therap 287:806-813.). Briefly, the inventors seeded 4,000-6,000 cells per well in microtiter plates. […] Plates were incubated for 3 hours in the dark and total cell number was determined by spectrophotometrically at 540 nm as previously described (Vogt A, Rice RL, Settineri CE, Yokokawa F, Yokokawa S, Wipf P and Lazo JS (1998) Disruption of insulin-like growth factor-1 signaling and down-regulation of Cdc2 by SC-ααδ9, a novel small molecule antisignaling agent identified in a targeted array library. J Pharmacol Exptl Therap 287:806-813.). […]

Assay [2] concerns mouse embryonic fibroblasts transformed with SV40 large T antigen. Nature of the assay: Proliferation of SV40 transformed mouse embryonic fibroblasts. The format is cell-based. Conditions: Mus musculus, Fibroblast; data not shown; read-out: concentration required to inhibit growth by 50%. As for the experimental part:
Two compounds, 24 referred to herein as SR-4 and 27 referred to herein as SR-7, were examined in greater detail as to their effects on biological activity. The proliferation of MCF-7, MDA-MB-231 and SV40 transformed mouse embryonic fibroblasts was measured by a previously described colorimetric assay (Wipf P, Jung J-K, Rodriguez S, Lazo JS Synthesis and biological evaluation of Deoxypreussomerin A and Palmarumycin CP 1 and related naphthoquinone spiroketals. Tetrahedron 57:283-296, 2001 and Vogt A, Rice RL, Settineri CE, Yokokawa F, Yokokawa S, Wipf P and Lazo JS (1998) Disruption of insulin-like growth factor-I signaling and down-regulation of Cdc2 by SC-ααδ9, a novel small molecule antisignaling agent identified in a targeted array library. J Pharmacol Exptl Therap 287:806-813.). Briefly, the inventors seeded 4,000-6,000 cells per well in microtiter plates. Cells were allowed to attach overnight and treated with vehicle or compounds for 72 h, after which the medium was replaced with serum free medium containing 0.1% 3-[4,5-dimethylthiazol-2-yl]-2,5-diphenyl tetrazolium bromide. Plates were incubated for 3 hours in the dark and total cell number was determined by spectrophotometrically at 540 nm as previously described (Vogt A, Rice RL, Settineri CE, Yokokawa F, Yokokawa S, Wipf P and Lazo JS (1998) Disruption of insulin-like growth factor-1 signaling and down-regulation of Cdc2 by SC-ααδ9, a novel small molecule antisignaling agent identified in a targeted array library. J Pharmacol Exptl Therap 287:806-813.). […] Cells were maintained in RPMI 1640 medium containing 10% fetal bovine serum and the paclitaxel-resistant cells also contained 17 nM paclitaxel and 10 μM verapamil. […] The number of cells was determined spectrophotometrically at 490 nm minus absorbance at 630 nm after exposure to 3-(4,5-dimethylthiazol-2-yl)-5-(3-carboxymethoxyphenyl)-2-(4-sulfophenyl)-2H-tetrazolium and N-methyldibenzopyurazine methyl sulfate. […]

The subject of the next assay is recombinant Cdc25. The assay can be described thus: In vitro inhibition of recombinant Cdc25. Conditions: 30 μM, data not shown. The class given is biochemical.

With `O=C1C=CC2(Oc3cccc4cccc(c34)O2)c2cccc(OCc3ccco3)c21` [SR-7, 8-(furan-2-ylmethoxy)-1-oxo-1,4-dihydronaphthalene-4-spiro-2′-naphto [1″,8″-de][1′,3′] dioxin], the Cdk1 phosphorylation status result in the assay with Cdk1 is listed as “Cdk1 was completely dephosphorylated”. Moreover, in the assay with tsFT210 cells, the G1 transition result is “not delayed at G1”. The “inhibition of paclitaxel-sensitive and -resistant cell growth” value in assay [1] is listed as “almost equal inhibition”. Further, in assay [2], the IC50 came to 3 µM. In the assay with recombinant Cdc25, the “inhibition of recombinant Cdc25 activity” value is given as “no inhibition”.
Consider `O=C1C=CC2(Oc3cccc4cccc(c34)O2)c2cccc(O)c21` [palmarumycin CP1, 8-hydroxy-1-oxo-1,4-dihydronaphthalene-4-spiro-2′-naphtho[1″,8″-de] [1′,3′] dioxin, reference compound], for which, in assay [2], the IC50 was determined as 3 µM.
